Earlier results in PubChem BioAssay AID1259409 (Chemical Carcinogenesis Research Information System (CCRIS), 2018).
Where “and” joins values, the source holds several entries; their conditions need not be identical. Equal entries are not always repeated.

Test system: rodent chemically induced tumor inhibition, incidence and multiplicity
Assay: CCRIS tumor inhibitor studies

For `O=c1cc(-c2ccccc2)oc2ccc3ccccc3c12`, the “tumour outcome (control, treated, inhibition, significance)” value (Carcinogen: 2-AMINO-1-METHYL-6-PHENYLIMIDAZO[4,5-B]PYRIDINE [105650-23-5], Dose [Inhibitor]: 1000 PPM IN DIET FOR 4 WK BEGINNING WK PRIOR TO FIRST CARCINOGEN DOSE (STUDY DURATION: 25 WK), Route [Inhibitor]: ORAL, Species: RAT, Strain/Sex: SPRAGUE-DAWLEY/FEMALE, Target Tissue: Type of Lesion: MAMMARY GLAND: FIBROADENOMA OR DUCTAL CARCINOMA, Dose [Carcinogen]: 85 MG/KG BW 2X/WK FOR 4 WK (STUDY DURATION: 25 WK), Promoter: NONE) is listed as 67.7%, 12.5%, 82%, p<0.001, the “tumour outcome (control, treated, inhibition, significance)” value (Carcinogen: 7,12-DIMETHYLBENZ[A]ANTHRACENE [57-97-6], Dose [Inhibitor]: 500 PPM IN DIET FOR 10 WK BEGINNING 1 WK PRIOR TO FIRST CARCINOGEN DOSE (STUDY DURATION: 11 MONTHS), Route [Inhibitor]: ORAL, Species: FISH, Strain/Sex: RAINBOW TROUT/MALE, FEMALE, Target Tissue: Type of Lesion: LIVER: TUMOR, Dose [Carcinogen]: 800 PPM IN DIET FOR 9 WK (STUDY DURATION: 11 MONTHS), Promoter: NONE) is listed as 4%, 7%, -75%, not significant and the “tumour outcome (control, treated, inhibition, significance)” value (Carcinogen: 7,12-DIMETHYLBENZ[A]ANTHRACENE [57-97-6], Dose [Inhibitor]: 500 PPM IN DIET FOR 10 WK BEGINNING 1 WK PRIOR TO FIRST CARCINOGEN DOSE (STUDY DURATION: 11 MONTHS), Route [Inhibitor]: ORAL, Species: FISH, Strain/Sex: RAINBOW TROUT/MALE, FEMALE, Target Tissue: Type of Lesion: STOMACH: TUMOR, Dose [Carcinogen]: 800 PPM IN DIET FOR 9 WK (STUDY DURATION: 11 MONTHS), Promoter: NONE) is listed as 92%, 28%, 70%, p<0.001. The “tumour outcome (control, treated, inhibition, significance)” value (Carcinogen: 7,12-DIMETHYLBENZ[A]ANTHRACENE [57-97-6], Dose [Inhibitor]: 500 PPM IN DIET FOR 10 WK BEGINNING 1 WK PRIOR TO FIRST CARCINOGEN DOSE (STUDY DURATION: 11 MONTHS), Route [Inhibitor]: ORAL, Species: FISH, Strain/Sex: RAINBOW TROUT/MALE, FEMALE, Target Tissue: Type of Lesion: SWIM BLADDER: TUMOR, Dose [Carcinogen]: 800 PPM IN DIET FOR 9 WK (STUDY DURATION: 11 MONTHS), Promoter: NONE) was 46%, 27%, 41%, p<0.001, the “tumour outcome (control, treated, inhibition, significance)” value (Carcinogen: 7,12-DIMETHYLBENZ[A]ANTHRACENE, 57-97-6, Dose [Inhibitor]: 100 UG APPLIED ONCE 5 MIN BEFORE DMBA (STUDY DURATION: 28 WK), Route [Inhibitor]: DERMAL, Species: MOUSE, Strain/Sex: CD-1/FEMALE, Target Tissue: Type of Lesion: SKIN: PAPILLOMA, Dose [Carcinogen]: 2.56 UG APPLIED ONCE 5 MIN AFTER INHIBITOR, Promoter: 12-O-TETRADECANOYLPHORBOL-13-ACETATE, 16561-29-8) was 82%, 65%, 21%, not calculated and the “tumour outcome (control, treated, inhibition, significance)” value (Carcinogen: 7,12-DIMETHYLBENZ[A]ANTHRACENE, 57-97-6, Dose [Inhibitor]: 1000 UG APPLIED ONCE 5 MIN BEFORE DMBA (STUDY DURATION: 28 WK), Route [Inhibitor]: DERMAL, Species: MOUSE, Strain/Sex: CD-1/FEMALE, Target Tissue: Type of Lesion: SKIN: PAPILLOMA, Dose [Carcinogen]: 2.56 UG APPLIED ONCE 5 MIN AFTER INHIBITOR, Promoter: 12-O-TETRADECANOYLPHORBOL-13-ACETATE, 16561-29-8) was 82%, 60%, 27%, not calculated. For the same molecule, the “tumour outcome (control, treated, inhibition, significance)” value (Carcinogen: DIETHYLNITROSAMINE, 55-18-5, Dose [Inhibitor]: 500 PPM IN DIET FOR 6 WK PRIOR TO CARCINOGEN DOSE (STUDY DURATION: 48 WK), Route [Inhibitor]: ORAL, Species: FISH, Strain/Sex: MT. SHASTA RAINBOW/MALE, FEMALE, Target Tissue: Type of Lesion: LIVER: HEPATOCELLULAR CARCINOMA AND HEPATOCHOLANGIOCELLULAR CARCINOMA, Dose [Carcinogen]: 250 PPM AQUEOUS SOLUTION FOR 24 HR, Promoter: NONE USED) was 105/131 (80%), 90/98 (92%), -15%, p=0.0102, the “tumour outcome (control, treated, inhibition, significance)” value (Carcinogen: N-NITROSOETHYLUREA, 759-73-9, Dose [Inhibitor]: 0, 150 MG/KG IN OLIVE OIL 48 HR PRIOR TO CARCINOGEN DOSE (STUDY DURATION: 8 WK), Route [Inhibitor]: INTRAPERITONEAL, Species: MOUSE, Strain/Sex: AKR/FEMALE, Target Tissue: Type of Lesion: LUNG: TUMOR, Dose [Carcinogen]: 8 MG/KG IN 0.22 MOLAR SODIUM CITRATE BUFFER 1/WK FOR 4 WK, Promoter: NONE USED) was 8/32 (25%), 8/35 (23%), 8%, not calculated and the “tumour outcome (control, treated, inhibition, significance)” value (Carcinogen: N-NITROSOETHYLUREA, 759-73-9, Dose [Inhibitor]: 0, 150 MG/KG IN OLIVE OIL 48 HR PRIOR TO CARCINOGEN DOSE (STUDY DURATION: 8 WK), Route [Inhibitor]: INTRAPERITONEAL, Species: MOUSE, Strain/Sex: C3H/HE/FEMALE, Target Tissue: Type of Lesion: LUNG: TUMOR, Dose [Carcinogen]: 8 MG/KG IN 0.22 MOLAR SODIUM CITRATE BUFFER 1/WK FOR 4 WK, Promoter: NONE USED) was 26/33 (79%), 25/29 (86%), -9%, not calculated. The “tumour outcome (control, treated, inhibition, significance)” value (Carcinogen: N-NITROSOETHYLUREA, 759-73-9, Dose [Inhibitor]: 0, 150 MG/KG IN OLIVE OIL 48 HR PRIOR TO CARCINOGEN DOSE (STUDY DURATION: 8 WK), Route [Inhibitor]: INTRAPERITONEAL, Species: MOUSE, Strain/Sex: C57BL/FEMALE, Target Tissue: Type of Lesion: LUNG: TUMOR, Dose [Carcinogen]: 8 MG/KG IN 0.22 MOLAR SODIUM CITRATE BUFFER 1/WK FOR 4 WK, Promoter: NONE USED) was 9/35 (26%), 17/29 (57%), -119%, not calculated, the “tumour outcome (control, treated, inhibition, significance)” value (Carcinogen: N-NITROSOETHYLUREA, 759-73-9, Dose [Inhibitor]: 0, 150 MG/KG IN OLIVE OIL 48 HR PRIOR TO CARCINOGEN DOSE (STUDY DURATION: 8 WK), Route [Inhibitor]: INTRAPERITONEAL, Species: MOUSE, Strain/Sex: DBA/FEMALE, Target Tissue: Type of Lesion: LUNG: TUMOR, Dose [Carcinogen]: 8 MG/KG IN 0.22 MOLAR SODIUM CITRATE BUFFER 1/WK FOR 4 WK, Promoter: NONE USED) was 12/34 (35%), 15/34 (44%), -26%, not calculated and the “tumour outcome (control, treated, inhibition, significance)” value (Carcinogen: N-NITROSOETHYLUREA, 759-73-9, Dose [Inhibitor]: 0, 150 MG/KG IN OLIVE OIL 48 HR PRIOR TO CARCINOGEN DOSE (STUDY DURATION: 8 WK), Route [Inhibitor]: INTRAPERITONEAL, Species: MOUSE, Strain/Sex: SWISS/FEMALE, Target Tissue: Type of Lesion: LUNG: TUMOR, Dose [Carcinogen]: 8 MG/KG IN 0.22 MOLAR SODIUM CITRATE BUFFER 1/WK FOR 4 WK, Promoter: NONE USED) was 26/27 (96%), 12/16 (75%), 22%, not calculated. The “tumour outcome (control, treated, inhibition, significance)” value (Dose [Inhibitor]: 0, 0.015% IN DIET FOR 9 WK BEGINNING 1 WK PRIOR TO AND CONTINUING DURING CARCINOGEN TREATMENT (STUDY DURATION: 42 WK), Route [Inhibitor]: ORAL, Species: RAT, Strain/Sex: F344/MALE, Target Tissue: Type of Lesion: LIVER: HEPATOMA, Dose [Carcinogen]: 25 UG 5 D/WK FOR 8 WK, Promoter: NONE USED) was 15/15 (100%), 4/16 (25%), 75%, not calculated and 15/15 (100%), 5/15 (31%), 69%, not calculated, the “tumour outcome (control, treated, inhibition, significance)” value (Dose [Inhibitor]: 0, 50 PPM IN DIET BEGINNING 8 WK PRIOR TO CARCINOGEN AND CONTINUING FOR 6 WK POST CARCINOGEN (STUDY DURATION: 68 WK), Route [Inhibitor]: ORAL, Species: FISH, Strain/Sex: RAINBOW TROUT, Target Tissue: Type of Lesion: LIVER: HEPATOCELLULAR CARCINOMA, Dose [Carcinogen]: 20 PPB IN DIET FOR 2 WK, Promoter: NONE USED) was 43/118 (36%), 20/117 (17%), 53%, p<0.05 and the “tumour outcome (control, treated, inhibition, significance)” value (Dose [Inhibitor]: 0, 500 PPM IN DIET BEGINNING 8 WK PRIOR TO CARCINOGEN AND CONTINUING FOR 6 WK POST CARCINOGEN (STUDY DURATION: 68 WK), Route [Inhibitor]: ORAL, Species: FISH, Strain/Sex: RAINBOW TROUT, Target Tissue: Type of Lesion: LIVER: HEPATOCELLULAR CARCINOMA, Dose [Carcinogen]: 20 PPB IN DIET FOR 2 WK, Promoter: NONE USED) was 43/118 (36%), 7/120 (6%), 84%, p<0.01. For the same molecule, the outcome (Dose [Inhibitor]: 0.005% IN DIET BEGINNING 4 WK PRIOR TO CARCINOGEN DOSE AND CONTINUING FOR 4 ADDITIONAL WK CONCURRENTLY WITH CARCINOGEN D, Route [Inhibitor]: ORAL, Species: FISH, Strain/Sex: MT. SHASTA RAINBOW TROUT, Target Tissue: Type of Lesion: LIVER: CHOLANGIOCELLULAR CARCINOMA OR ADENOMA, Dose [Carcinogen]: 10 PPB IN DIET FOR 4 WK, Promoter: NONE USED) was 0/166, 1/177, 0%, the “tumour outcome (control, treated, inhibition, significance)” value (Dose [Inhibitor]: 0.005% IN DIET BEGINNING 4 WK PRIOR TO CARCINOGEN DOSE AND CONTINUING FOR 4 ADDITIONAL WK CONCURRENTLY WITH CARCINOGEN D, Route [Inhibitor]: ORAL, Species: FISH, Strain/Sex: MT. SHASTA RAINBOW TROUT, Target Tissue: Type of Lesion: LIVER: HEPATOCELLULAR CARCINOMA OR MIXED CARCINOMA OR HEPATOCELLULAR ADENOMA, Dose [Carcinogen]: 10 PPB IN DIET FOR 4 WK, Promoter: NONE USED) was 39/166 (23%), 7/177 (4%), 83%, p<0.01 and the “tumour outcome (control, treated, inhibition, significance)” value (Dose [Inhibitor]: 0.005% IN DIET FOR 8 WK (STUDY DURATION: 1 YR), Route [Inhibitor]: ORAL, Species: FISH, Strain/Sex: MT. SHASTA RAINBOW TROUT, Target Tissue: Type of Lesion: LIVER: CHOLANGIOCELLULAR CARCINOMA OR ADENOMA, Dose [Carcinogen]: 0.5 PPM AQUEOUS SOLUTION FOR 30 MIN EXPOSURE OF EMBRYOS 21 D AFTER FERTILIZATION, Promoter: NONE USED) was 8/182 (4%), 7/175 (4%), 0%, not calculated. The outcome (Dose [Inhibitor]: 0.05% IN DIET BEGINNING 4 WK PRIOR TO CARCINOGEN DOSE AND CONTINUING FOR 4 ADDITIONAL WK CONCURRENTLY WITH CARCINOGEN DO, Route [Inhibitor]: ORAL, Species: FISH, Strain/Sex: MT. SHASTA RAINBOW TROUT, Target Tissue: Type of Lesion: LIVER: CHOLANGIOCELLULAR CARCINOMA OR ADENOMA, Dose [Carcinogen]: 10 PPB IN DIET FOR 4 WK, Promoter: NONE USED) was 0/166 (0%), 0/172 (0%) and the “tumour outcome (control, treated, inhibition, significance)” value (Dose [Inhibitor]: 0.05% IN DIET BEGINNING 4 WK PRIOR TO CARCINOGEN DOSE AND CONTINUING FOR 4 ADDITIONAL WK CONCURRENTLY WITH CARCINOGEN DO, Route [Inhibitor]: ORAL, Species: FISH, Strain/Sex: MT. SHASTA RAINBOW TROUT, Target Tissue: Type of Lesion: LIVER: HEPATOCELLULAR CARCINOMA OR MIXED CARCINOMA OR HEPATOCELLULAR ADENOMA, Dose [Carcinogen]: 10 PPB IN DIET FOR 4 WK, Promoter: NONE USED) was 39/166 (23%), 1/172 (0.6%), 97%, p<0.01.
